Laboratory results: article PMC7321065, “Discovery of New Schiff Bases Tethered Pyrazole Moiety: Design, Synthesis, Biological Evaluation, and Molecular Docking Study as Dual Targeting DHFR/DNA Gyrase Inhibitors with Immunomodulatory Activity” (Molecules, 2020)
Converted amounts (≈) assume the structure as drawn. Where two headings read alike, the source gives them in different places.

Tests used:
[1] = test system: mammary gland breast cancer cell line (MCF-7); assay: Antiproliferative activity, MTT assay; type: cell-based, human; details: Homo sapiens, MCF7; MTT, 48 h; read-out: IC50 MCF-7
Method: (§1) 3-[4, 5-Dimethyl-2-thiazolyl)-2, 5-diphenyl-2 H-tetrazolium bromide (MTT) protocol is based on the cleavage of the tetrazolium salt by mitochondrial dehydrogenases in viable cells. Cells were dispensed in a 96 well sterile microplate (5 x 10^4 cells/well), and incubated at 37 °C with series of different concentrations, in DMSO, of each tested compound or Doxorubicin ® (positive control) for 48 h in a serum free medium prior to the MTT assay. After incubation, media were carefully removed, 40 µL of MTT (2.5 mg/mL) were added to each well and then incubated for an additional 4 h. The purple formazan dye crystals were solubilized by the addition of 200 µL of DMSO. The absorbance was measured at 590 nm using a SpectraMax® Paradigm® Multi-Mode microplate reader. The relative cell viability was expressed as the mean percentage of viable cells compared to the untreated control cells.
(§2) All experiments were conducted in triplicate and repeated in three different days. All the values were represented as mean ± SD. IC 50s were determined by probit analysis using SPSS software program (SPSS

[2] = test system: hepatocellular carcinoma cell line (HepG2); assay: Antiproliferative activity, MTT assay; type: cell-based, human; details: Homo sapiens, HepG2; MTT, 48 h; read-out: IC50 HepG-2
Method: as §1, §2

Escherichia coli [3] = assay: Inhibition zone, agar plate diffusion; type: cell-based; details: read-out: Inhibition zone (IZ)
Method: (§3) Antimicrobial activities of the newly formed Schiff bases (6a–d, 7a–d, 8a–d, and 9a–d) and reference drugs were evaluated against three Gram-positive, three Gram-negative, and two fungi strain at Al-Azhar University, Cairo, Egypt. The inhibition zones (IZ, in mm ± standard deviation) and the minimal inhibitory concentration (MIC) (μg/mL) were determined by the conventional paper disk diffusion method.
(§4) In Vitro Antimicrobial Activities
(§5) The antimicrobial activities inhibition zone (IZ, mm±standard deviation) of pyrazole Schiff bases ( 6a-d , 7a-d, 8a-d and 9a-d ) was measurement according to the agar plate diffusion method. Briefly, 100 µl of the […]
(§6) […] of each sample (at 0.5 mg/mL) was added to each well (10 mm diameter holes cut in the agar gel). The plates were incubated for 24 h at 37 °C (for bacteria and yeast) and for 72 h at 27 °C (for filamentous fungi), each test was repeated three times. After incubation, the microorganism's growth was observed. […]
(§7) drugs while Amphotericin B was used as standard antifungal drug. The resulting inhibition zone diameters were measured in millimeters and used as criterion for the antimicrobial activity. Solvent controls (DMSO) were included in every experiment as negative controls. DMSO was used for dissolving […]
(§8) the tested microorganisms. […]

Bacillus subtilis [4] = assay: Inhibition zone, agar plate diffusion; type: cell-based; details: read-out: Inhibition zone (IZ)
Method: as §3, §4, §5, §6, §7, §8

Enterococcus faecalis [5] = assay: Inhibition zone, agar plate diffusion; type: cell-based; details: read-out: Inhibition zone (IZ)
Method: as §3, §4, §5, §6, §7, §8

Pseudomonas aeruginosa [6] = assay: Inhibition zone, agar plate diffusion; type: cell-based; details: read-out: Inhibition zone (IZ)
Method: as §3, §4, §5, §6, §7, §8

Candida albicans [7] = assay: Inhibition zone, agar plate diffusion; type: cell-based; details: read-out: Inhibition zone (IZ)
Method: as §3, §4, §5, §6, §7, §8
(§9) Bacteria were grown on nutrient agar medium, while fungi and yeast were grown on Sabouraud agar medium. […]

Staphylococcus aureus [8] = assay: Inhibition zone, agar plate diffusion; type: cell-based; details: read-out: Inhibition zone (IZ)
Method: as §3, §4, §5, §6, §7, §8, §9

Salmonella typhi [9] = assay: Inhibition zone, agar plate diffusion; type: cell-based; details: Salmonella enterica, read-out: Inhibition zone (IZ)
Method: as §3, §4, §5, §6, §7, §8, §9

Fusarium oxysporum [10] = assay: Inhibition zone, agar plate diffusion; type: cell-based; details: read-out: Inhibition zone (IZ)
Method: as §3, §4, §5, §6, §7, §8, §9

Escherichia coli [11] = assay: MIC/MBC, paper disk diffusion; type: cell-based; details: Escherichia coli, E. coli
Method: as §3
(§10) In Vitro Antimicrobial Activities […]
(§11) DMSO was used for dissolving […]
(§12) the tested microorganisms.
(§13) The minimum inhibitory concentration (MIC), the minimum bactericidal concentration (MBC, µg/ml) and […]
(§14) and 9b) were determined by the conventional technique termed paper disk diffusion, by applying paper […]
(§15) Bacteria were grown on nutrient agar medium, while fungi and yeast were grown on Sabouraud agar medium. The purified streptomycin was dissolved in […]
(§16) inoculated with test organism. Growth inhibition was examined after 24 hr. from incubation at 37 °C for bacteria and after 72 hr. incubation at 27 °C for fungi and yeast. Each test was repeated three times. MIC was expressed as the lowest concentration inhibiting test organism’s growth. […]

Staphylococcus aureus [12] = assay: MIC/MBC, paper disk diffusion; type: cell-based; details: Staphylococcus aureus, S. aureus
Method: as §3, §10, §11, §12, §13, §14, §15, §16

Bacillus subtilis [13] = assay: MIC/MBC, paper disk diffusion; type: cell-based; details: Bacillus subtilis, B. subtilis; read-out: MBC
Method: as §3, §10, §11, §12, §13, §14, §15, §16

Enterococcus faecalis [14] = assay: MIC/MBC, paper disk diffusion; type: cell-based; details: E. faecalis
Method: as §3, §10, §11, §12, §13, §14, §15, §16

Pseudomonas aeruginosa [15] = assay: MIC/MBC, paper disk diffusion; type: cell-based; details: Pseudomonas aeruginosa, P. aeruginosa
Method: as §3, §10, §11, §12, §13, §14, §15, §16

Salmonella typhi [16] = assay: MIC/MBC, paper disk diffusion; type: cell-based; details: Salmonella enterica, TYPHI
Method: as §3, §10, §11, §12, §13, §14, §15, §16

Candida albicans [17] = assay: MIC/MFC, paper disk diffusion; type: cell-based; details: Candida albicans, C. albicans
Method: as §3, §10, §11, §12, §13, §14, §15, §16

Fusarium oxysporum [18] = assay: MIC/MFC, paper disk diffusion; type: cell-based; details: Fusarium oxysporum, F. oxysporum
Method: as §3, §10, §11, §12, §13, §14, §15, §16

[19] = St, mm ± standard deviation, sample at 0.5 mg/mL
[20] = Ec, mm ± standard deviation, sample at 0.5 mg/mL
[21] = Bs, mm ± standard deviation, sample at 0.5 mg/mL
[22] = Ef, mm ± standard deviation, sample at 0.5 mg/mL
[23] = Pa, mm ± standard deviation, sample at 0.5 mg/mL
[24] = Ca, mm ± standard deviation, sample at 0.5 mg/mL
[25] = Sa, mm ± standard deviation, sample at 0.5 mg/mL
[26] = Fo, mm ± standard deviation, sample at 0.5 mg/mL

Compound	zone of inhibition at 500 µg/mL (Escherichia coli [3]) [mm]	zone of inhibition at 500 µg/mL (Bacillus subtilis [4]) [mm]	zone of inhibition at 500 µg/mL (Enterococcus faecalis [5]) [mm]	zone of inhibition at 500 µg/mL (Pseudomonas aeruginosa [6]) [mm]	zone of inhibition at 500 µg/mL (Candida albicans [7]) [mm]	zone of inhibition at 500 µg/mL (Staphylococcus aureus [8]) [mm]	zone of inhibition at 500 µg/mL (Salmonella typhi [9]; [19]) [mm]	zone of inhibition at 500 µg/mL (Fusarium oxysporum [10]) [mm]	other results
COc1cccc2c1C(=O)c1c(O)c3c(c(O)c1C2=O)C[C@@](O)(C(=O)CO)C[C@@H]3O[C@H]1C[C@H](N)[C@H](O)[C@H](C)O1 [Doxorubicin, reference compound]									IC50 [1]: 1940 ± 800 nM; IC50 [2]: 3920 ± 500 nM
COc1ccc(Nc2n[nH]c(N=Cc3ccc(N4CCCCC4)cc3)c2C(=O)Nc2ccccc2)cc1 [8b, 3-(p-Methoxyphenylamino)-N-phenyl-5-(4-(piperidin-1-yl)benzylideneamino)-1H-pyrazole-4-carboxamide]	14 ± 0.21	15 ± 0.45	12 ± 0.74	< 8	12 ± 0.65	< 8	15 ± 0.2	< 8	
COc1ccc(Nc2n[nH]c(N=Cc3c(C)nn(-c4ccccc4)c3Cl)c2C(=O)Nc2ccc(Cl)cc2)cc1 [7d, 5-((5-Chloro-3-methyl-1-phenyl-1H-pyrazol-4-yl)methyleneamino)-N-(p-chlorophenyl)-3-(p-methoxyphenylamino)-1H-pyrazole-4-carboxamide]	27 ± 0.3	23 ± 0.22	22 ± 0.35	17 ± 0.74	20 ± 0.5	24 ± 0.33	17 ± 0.12	15 ± 0.14	
COc1ccc(Nc2n[nH]c(N=Cc3ccc(N4CCCCC4)cc3)c2C(=O)Nc2ccc(C)cc2)cc1 [8c, 3-(p-Methoxyphenylamino)-5-(4-(piperidin-1-yl)benzylideneamino)-N-p-tolyl-1H-pyrazole-4-carboxamide]	18 ± 0.3	22 ± 0.41	25 ± 0.14	< 8	19 ± 0.65	17 ± 0.78	14 ± 0.52	< 8	
COc1ccc(Nc2n[nH]c(N=Cc3c(C)n(C)n(-c4ccccc4)c3=O)c2C(=O)Nc2ccc(C)cc2)cc1 [6c, 5-((1,5-Dimethyl-3-oxo-2-phenyl-2,3-dihydro-1H-pyrazol-4-yl)methyleneamino)-3-(p-methoxyphenylamino)-N-p-tolyl-1H-pyrazole-4-carboxamide]	22 ± 0.43	20 ± 0.11	21 ± 0.54	< 8	17 ± 0.21	23 ± 0.29	15 ± 0.36	9 ± 0.35	
COc1ccc(Nc2n[nH]c(N=Cc3c(C)n(C)n(-c4ccccc4)c3=O)c2C(=O)Nc2ccc(Cl)cc2)cc1 [6d, N-(4-Chlorophenyl)-5-((1,5-dimethyl-3-oxo-2-phenyl-2,3-dihydro-1H-pyrazol-4-yl)methyleneamino)-3-(p-methoxyphenylamino)-1H-pyrazole-4-carboxamide]	19 ± 0.33	13 ± 0.41	14 ± 0.47	12 ± 0.63	13 ± 0.2	< 8	< 8	< 8	
CN(C)[C@@H]1C(O)=C(C(N)=O)C(=O)[C@@]2(O)C(O)=C3C(=O)c4c(O)cccc4[C@@](C)(O)[C@H]3C[C@@H]12 [Tetracycline, reference compound]									zone of inhibition at 500 µg/mL (Escherichia coli [3]; [20]): 23 ± 0.2 mm; zone of inhibition at 500 µg/mL (Bacillus subtilis [4]; [21]): 25 ± 0.22 mm; zone of inhibition at 500 µg/mL (Enterococcus faecalis [5]; [22]): 22 ± 0.25 mm; zone of inhibition at 500 µg/mL (Pseudomonas aeruginosa [6]; [23]): 20 ± 0.5 mm; zone of inhibition at 500 µg/mL (Candida albicans [7]; [24]): < 8 mm; zone of inhibition at 500 µg/mL (Staphylococcus aureus [8]; [25]): 25 ± 0.11 mm; zone of inhibition at 500 µg/mL (Salmonella typhi [9]): 21 ± 0.55 mm; zone of inhibition at 500 µg/mL (Fusarium oxysporum [10]; [26]): < 8 mm; MBC (Escherichia coli [11]; read-out: MBC): 18.7 µg/mL (≈ 42.2 µM); MIC (Escherichia coli [11]; read-out: MIC): 15.6 µg/mL (≈ 35.1 µM); MBC (Staphylococcus aureus [12]; read-out: MBC): 87.5 µg/mL (≈ 197 µM); MIC (Staphylococcus aureus [12]; read-out: MIC): 62.5 µg/mL (≈ 141 µM); MBC (Bacillus subtilis [13]): 40.6 µg/mL (≈ 91.4 µM); MBC (Enterococcus faecalis [14]; read-out: MBC): 93.8 µg/mL (≈ 211 µM); MIC (Enterococcus faecalis [14]; read-out: MIC): 62.5 µg/mL (≈ 141 µM); MBC (Pseudomonas aeruginosa [15]; read-out: MBC): 87.5 µg/mL (≈ 197 µM); MIC (Pseudomonas aeruginosa [15]; read-out: MIC): 62.5 µg/mL (≈ 141 µM); MBC (Salmonella typhi [16]): 43.8 µg/mL (≈ 98.4 µM)
C[C@@H]1[C@H](O)[C@@H](C)/C=C/C=C/C=C/C=C/C=C/C=C/C=C/[C@H](O[C@@H]2O[C@H](C)[C@@H](O)[C@H](N)[C@@H]2O)C[C@@H]2O[C@](O)(C[C@@H](O)C[C@@H](O)[C@H](O)CC[C@@H](O)C[C@@H](O)CC(=O)O[C@H]1C)C[C@H](O)[C@H]2C(=O)O [Amphotericin B, reference compound]							< 8		zone of inhibition at 500 µg/mL (Escherichia coli [3]; [20]): < 8 mm; zone of inhibition at 500 µg/mL (Bacillus subtilis [4]; [21]): < 8 mm; zone of inhibition at 500 µg/mL (Enterococcus faecalis [5]; [22]): < 8 mm; zone of inhibition at 500 µg/mL (Pseudomonas aeruginosa [6]; [23]): < 8 mm; zone of inhibition at 500 µg/mL (Candida albicans [7]; [24]): 22 ± 0.2 mm; zone of inhibition at 500 µg/mL (Staphylococcus aureus [8]; [25]): < 8 mm; zone of inhibition at 500 µg/mL (Fusarium oxysporum [10]; [26]): 18 ± 0.32 mm; MFC (Candida albicans [17]; read-out: MFC): 34.6 µg/mL (≈ 37.5 µM); MIC (Candida albicans [17]; read-out: MIC): 15.6 µg/mL (≈ 16.9 µM); MFC (Fusarium oxysporum [18]; read-out: MFC): 65.6 µg/mL (≈ 71 µM); MIC (Fusarium oxysporum [18]; read-out: MIC): 31.2 µg/mL (≈ 33.8 µM)
